Assays:
[1] = target: Serine/threonine-protein kinase mTOR (Homo sapiens, UniProt P42345); experiment: Inhibition of human mTOR measured after 30 mins in presence of ATP by Lanthascreen TR-FRET assay
[2] = target: Phosphatidylinositol 4,5-bisphosphate 3-kinase catalytic subunit alpha isoform (Homo sapiens, UniProt P42336); experiment: Inhibition of PI3K alpha (unknown origin)
Phosphatidylinositol 4,5-bisphosphate 3-kinase catalytic subunit alpha isoform, sequence (P42336 whole entry, canonical isoform): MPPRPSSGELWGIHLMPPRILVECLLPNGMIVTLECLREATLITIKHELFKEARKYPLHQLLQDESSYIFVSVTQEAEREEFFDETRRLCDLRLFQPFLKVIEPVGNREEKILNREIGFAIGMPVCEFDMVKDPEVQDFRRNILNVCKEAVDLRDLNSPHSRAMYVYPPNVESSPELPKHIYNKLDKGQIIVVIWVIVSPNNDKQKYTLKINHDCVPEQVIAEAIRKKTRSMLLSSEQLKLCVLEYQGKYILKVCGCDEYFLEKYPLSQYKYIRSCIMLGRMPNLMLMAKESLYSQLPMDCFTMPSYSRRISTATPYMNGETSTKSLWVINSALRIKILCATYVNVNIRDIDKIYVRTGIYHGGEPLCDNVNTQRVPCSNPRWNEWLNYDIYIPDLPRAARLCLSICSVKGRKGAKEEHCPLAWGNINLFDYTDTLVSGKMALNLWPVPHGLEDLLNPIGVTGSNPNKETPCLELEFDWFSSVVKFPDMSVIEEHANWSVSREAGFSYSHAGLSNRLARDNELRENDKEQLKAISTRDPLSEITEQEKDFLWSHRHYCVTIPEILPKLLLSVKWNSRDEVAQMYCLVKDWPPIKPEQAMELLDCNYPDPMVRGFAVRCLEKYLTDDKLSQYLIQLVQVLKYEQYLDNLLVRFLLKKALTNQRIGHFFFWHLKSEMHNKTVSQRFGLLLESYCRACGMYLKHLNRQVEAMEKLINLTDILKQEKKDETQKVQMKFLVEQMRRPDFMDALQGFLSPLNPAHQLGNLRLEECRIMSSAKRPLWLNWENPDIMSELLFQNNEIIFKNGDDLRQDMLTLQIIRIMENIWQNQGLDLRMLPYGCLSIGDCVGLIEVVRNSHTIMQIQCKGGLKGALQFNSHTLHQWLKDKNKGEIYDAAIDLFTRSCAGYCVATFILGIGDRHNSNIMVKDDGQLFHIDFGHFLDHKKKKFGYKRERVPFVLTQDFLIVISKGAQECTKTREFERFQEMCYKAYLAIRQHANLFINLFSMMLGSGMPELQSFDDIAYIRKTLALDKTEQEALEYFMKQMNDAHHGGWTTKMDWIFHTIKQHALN

Question: Which results are given for `CNC(=O)Nc1ccc(-c2nc(C)c3nc4n(c3n2)CCOC4)cc1`?
Answer: IC50 [1]: 5.01 µM; IC50 [2]: 5.01 µM
